One experiment deals with T1, Dihydrofolate reductase (Mus musculus, UniProt P00375).
T1 sequence (P00375 whole entry): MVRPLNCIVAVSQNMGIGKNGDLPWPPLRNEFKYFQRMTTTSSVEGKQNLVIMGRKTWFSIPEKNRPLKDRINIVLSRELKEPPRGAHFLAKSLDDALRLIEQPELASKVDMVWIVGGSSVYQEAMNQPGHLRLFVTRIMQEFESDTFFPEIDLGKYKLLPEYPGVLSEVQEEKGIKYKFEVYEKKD
Nature of the experiment: Inhibition of Dihydrofolate reductase (DHFR) enzyme derived from L1210 cells expressed as Ki (pM). The experiment is classed as cell-based.

The species named for experiment [1] is Mus musculus. The experiment in a line: (§1) Inhibition of growth in L1210 murine leukemia cells in culture expressed as IC50 (nM). In kind it is functional, cell-based.
The species named for experiment [2] is Mus musculus. Nature of the experiment: (§2) Transport influx which is determined by competitive binding for the transport protein; expressed as Ki (uM). In kind it is functional, organism-based.
For experiment [3], the target named is L1210. Described as §2. The experiment is classed as functional, cell-based, Mus musculus.
The subject of experiment [4] is L1210. The description is as §1. In kind it is functional, cell-based. The note with it: Mus musculus.
Experiment [5] deals with Mus musculus. The experiment in a line: Average E0771 solid murine mammary tumor volume in BDF1 female mice (n=3) at 36 mg/kg at 14 day post treatment point.
In experiment [6] the test system is Mus musculus. The experiment in a line: Average E0771 solid murine mammary tumor volume in BDF1 female mice (n=5) at 24 mg/kg at 21 day post treatment point. In kind it is functional.
Experiment [7] has as its system Mus musculus. The experiment in a line: Average E0771 solid murine mammary tumor volume in BDF1 female mice (n=5) at 24 mg/kg at 14 day post treatment point. The experiment is classed as functional.
Experiment [8] has as its system Mus musculus. The experiment in a line: Average E0771 solid murine mammary tumor volume in BDF1 female mice (n=5) at 24 mg/kg at 10 day post treatment point. In kind it is functional.
Experiment [9] relates to Mus musculus. Nature of the experiment: Average E0771 solid murine mammary tumor volume in BDF1 female mice (n=5) at 36 mg/kg at 10 day post treatment point; Expressed as % T/C. In kind it is functional.
Experiment [10] concerns Mus musculus. Nature of the experiment: Average E0771 solid murine mammary tumor volume in BDF1 female mice (n=5) at 24 mg/kg at 21 day post treatment point; Expressed as % T/C. In kind it is functional.
The test system of experiment [11] is Mus musculus. The experiment in a line: Average E0771 solid murine mammary tumor volume in BDF1 female mice (n=5) at 36 mg/kg at 14 day post treatment point; Expressed as % T/C. In kind it is functional.
Experiment [12] has as its system Mus musculus. The experiment in a line: Average E0771 solid murine mammary tumor volume in BDF1 female mice (n=5) at 24 mg/kg at 14 day post treatment point; Expressed as % T/C. The experiment is classed as functional.
The subject of experiment [13] is Mus musculus. The experiment in a line: Average E0771 solid murine mammary tumor volume in BDF1 female mice (n=5) at 36 mg/kg at 21 day post treatment point; Expressed as % T/C. The experiment is classed as functional.
Experiment [14] relates to Mus musculus. The experiment in a line: Average E0771 solid murine mammary tumor volume in BDF1 female mice (n=5) at 24 mg/kg at 10 day post treatment point; Expressed as % T/C. The experiment is classed as functional.
Experiment [15] has as its system Mus musculus. The experiment in a line: Average E0771 solid murine mammary tumor volume in BDF1 female mice (n=5) at 36 mg/kg at 10 day post treatment point. In kind it is functional.
Experiment [16] has as its system Mus musculus. Nature of the experiment: Average E0771 solid murine mammary tumor volume in BDF1 female mice (n=3) at 36 mg/kg at 21 day post treatment point.
Experiment [17] concerns Mus musculus. Nature of the experiment: Average E0771 solid murine mammary tumor volume in BDF1 female mice (n=5) at 3 mg/kg at 10 day post treatment point; Expressed as % T/C. The experiment is classed as functional.
Experiment [18] relates to Mus musculus. The experiment in a line: Average E0771 solid murine mammary tumor volume in BDF1 female mice (n=5) at 3 mg/kg at 10 day post treatment point. In kind it is functional.
The subject of experiment [19] is Mus musculus. The experiment in a line: Average E0771 solid murine mammary tumor volume in BDF1 female mice (n=5) at 3 mg/kg at 14 day post treatment point. The experiment is classed as functional.
The test system of experiment [20] is Mus musculus. The experiment in a line: Average E0771 solid murine mammary tumor volume in BDF1 female mice (n=5) at 6 mg/kg at 14 day post treatment point; Expressed as % T/C. The experiment is classed as functional.
Experiment [21] concerns Mus musculus. Nature of the experiment: Average E0771 solid murine mammary tumor volume in BDF1 female mice (n=5) at 6 mg/kg at 14 day post treatment point. In kind it is functional.
The subject of experiment [22] is Mus musculus. The experiment in a line: Average E0771 solid murine mammary tumor volume in BDF1 female mice (n=5) at 3 mg/kg at 21 day post treatment point; Expressed as % T/C. In kind it is functional.
Experiment [23] has as its system Mus musculus. Nature of the experiment: Average E0771 solid murine mammary tumor volume in BDF1 female mice (n=5) at 6 mg/kg at 10 day post treatment point. In kind it is functional.
In experiment [24] the test system is Mus musculus. Nature of the experiment: Average E0771 solid murine mammary tumor volume in BDF1 female mice (n=5) at 9 mg/kg at 10 day post treatment point. In kind it is functional.
Experiment [25] relates to Mus musculus. The experiment in a line: Average E0771 solid murine mammary tumor volume in BDF1 female mice (n=5) at 9 mg/kg at 14 day post treatment point. In kind it is functional.
Experiment [26] relates to Mus musculus. The experiment in a line: Average E0771 solid murine mammary tumor volume in BDF1 female mice (n=5) at 9 mg/kg at 14 day post treatment point; Expressed as % T/C. The experiment is classed as functional.
Experiment [27] relates to Mus musculus. Nature of the experiment: Average E0771 solid murine mammary tumor volume in BDF1 female mice (n=5) at 9 mg/kg at 10 day post treatment point; Expressed as % T/C. The experiment is classed as functional.
In experiment [28] the test system is Mus musculus. The experiment in a line: Average E0771 solid murine mammary tumor volume in BDF1 female mice (n=5) at 6 mg/kg at 21 day post treatment point; Expressed as % T/C. In kind it is functional.
Experiment [29] relates to Mus musculus. Nature of the experiment: Average E0771 solid murine mammary tumor volume in BDF1 female mice (n=5) at 3 mg/kg at 21 day post treatment point. The experiment is classed as functional.
The subject of experiment [30] is Mus musculus. Nature of the experiment: Average E0771 solid murine mammary tumor volume in BDF1 female mice (n=5) at 3 mg/kg at 14 day post treatment point; Expressed as % T/C. In kind it is functional.
Experiment [31] concerns Mus musculus. The experiment in a line: Average E0771 solid murine mammary tumor volume in BDF1 female mice (n=5) at 9 mg/kg at 21 day post treatment point; Expressed as % T/C. In kind it is functional.
The test system of experiment [32] is Mus musculus. Nature of the experiment: Average E0771 solid murine mammary tumor volume in BDF1 female mice (n=5) at 6 mg/kg at 21 day post treatment point. In kind it is functional.
For experiment [33], the system named is Mus musculus. The experiment in a line: Average E0771 solid murine mammary tumor volume in BDF1 female mice (n=5) at 9 mg/kg at 21 day post treatment point. In kind it is functional.
In experiment [34] the test system is Mus musculus. Nature of the experiment: Average E0771 solid murine mammary tumor volume in BDF1 female mice (n=5) at 6 mg/kg at 10 day post treatment point; Expressed as % T/C. In kind it is functional.

SMILES strings stand for the structures. Bounds are passed on as bounds.

The Ki is a dissociation constant, usually derived from enzyme kinetics or from competition with a known ligand. Higher therefore signals a looser hold on the target. One may read the IC50 as the midpoint of a concentration-inhibition curve. Read a high IC50 as lower potency. In the case of `Nc1nc(N)c2nc(CCc3ccc(C(=O)N[C@@H](CCC(=O)O)C(=O)O)cc3)cnc2n1`, the results for the Ki at Dihydrofolate reductase and in the experiment listed under Mus musculus [2] were 0.0036 nM and 900 nM, respectively. Moreover, in the experiment listed under Mus musculus [1], 1.8 nM corresponded to half-maximal inhibition (IC50).

As to `CC(Cc1cnc2nc(N)nc(N)c2n1)c1ccc(C(=O)NC(CCC(=O)O)C(=O)O)cc1` (configuration not stated), the values for the Ki on Dihydrofolate reductase and in the experiment filed under Mus musculus [2] were 0.0041 nM and 950 nM, respectively. The compound also returned an IC50 in the experiment listed under Mus musculus [1] of 1.34 nM.

For the compound `CCCCCC(Cc1cnc2nc(N)nc(N)c2n1)c1ccc(C(=O)NC(CCC(=O)O)C(=O)O)cc1` (configuration not stated), the figures for the Ki at L1210 [3] and on Dihydrofolate reductase were 1000 nM and above 1 nM, respectively. In the experiment on L1210 [4], this compound came in with an IC50 of 251 nM.

With `CCCC(Cc1cnc2nc(N)nc(N)c2n1)c1ccc(C(=O)NC(CCC(=O)O)C(=O)O)cc1` (configuration not stated), the values for the Ki on L1210 [3] and on Dihydrofolate reductase were 1100 nM and 0.0092 nM, respectively. This compound also showed an IC50 in the experiment on L1210 [4] of 2.03 nM.

Broadly, the T/C is the ratio of treated to control. For `C#CCC(Cc1cnc2nc(N)nc(N)c2n1)c1ccc(C(=O)NC(CCC(=O)O)C(=O)O)cc1` (configuration not stated), the Average tumor volume with Mus musculus [5] came to 6 mm**3; in the experiment with Mus musculus [6], 204 mm**3; in the experiment with Mus musculus [7] it was 19 mm**3; in the experiment on Mus musculus [8], 62 mm**3; in the experiment with Mus musculus [15], 48 mm**3; in the experiment on Mus musculus [16] it was 21 mm**3. In addition, the Ki on Dihydrofolate reductase is 0.0182 nM; in the experiment filed under Mus musculus [2] it was 450 nM. Moreover, the IC50 in the experiment listed under Mus musculus [1] was determined as 2 nM. Further, the T/C with Mus musculus [9] stood at 31%; in the experiment with Mus musculus [10], 10%; in the experiment on Mus musculus [11], 1%; in the experiment on Mus musculus [12], 2%; with Mus musculus [13], 1%; with Mus musculus [14] it was 47%.

In the case of `CN(Cc1cnc2nc(N)nc(N)c2n1)c1ccc(C(=O)N[C@@H](CCC(=O)O)C(=O)O)cc1` [METHOTREXATE], the T/C came to 86% in the experiment on Mus musculus [17]; 2% in the experiment with Mus musculus [20]; 61% in the experiment with Mus musculus [22]; 2% in the experiment on Mus musculus [26]; 3% in the experiment on Mus musculus [27]; 18% in the experiment with Mus musculus [28]. Besides, the T/C in the experiment with Mus musculus [30] was 15%; in the experiment on Mus musculus [31], 15%; in the experiment with Mus musculus [34], 26%. Also, the Average tumor volume is reported as 113 mm**3 with Mus musculus [18]; 187 mm**3 in the experiment on Mus musculus [19]; 19 mm**3 with Mus musculus [21]; 34 mm**3 in the experiment on Mus musculus [23]; 4 mm**3 in the experiment with Mus musculus [24]; 19 mm**3 in the experiment on Mus musculus [25]. The Average tumor volume with Mus musculus [29] was 1260 mm**3; in the experiment on Mus musculus [32] it was 382 mm**3; with Mus musculus [33] it was 310 mm**3. The compound further returned an IC50 in the experiment on L1210 [4] of 9.5 nM. Besides, the Ki in the experiment listed under Mus musculus [2] amounted to 4200 nM.

For the origin of these results see ChEMBL document CHEMBL1126936, “Synthesis and antitumor activity of 10-propargyl-10-deazaaminopterin” (J Med Chem, 1993).
